Data set [1] has as its system Hela cells. In words: Cytotoxicity, acid phosphatase assay, HeLa. Type of data set: cell-based, Human. Particulars: 72 h; concentration of 50% growth inhibition. The method, then: (§1) (5). Determination of Cytotoxicity. Four human cancer cell lines, HeLa, Huh7, HCT116 and LoVo were used to assess cytotoxicity of the purified compounds. All the cell lines, except Huh7 cells,^14 were purchased from American Type Culture Collection. The cells were cultured in Dulbecco's modified Eagle medium (DMEM) supplemented with 10% fetal calf serum (FCS), 100 units/ml penicillin and […] streptomycin at 37° C. under 5% CO2. Cells were grown in a 96 well plate (2000 cells/well) with or without the addition of compounds 1, 2 or 3 for 72 h. An acid phosphatase assay^14,15 was then used to quantitate the viable cells. Briefly, after the media were aspirated, the cells were washed with phosphate buffer saline (PBS) and then incubated with 100 μl of 0.1M sodium acetate buffer containing 10 mM p-nitrophenyl phosphate and 0.1% Triton X-100, and incubated at 37° C. for 1 h. The reaction was stopped by the addition of 10 μl of 1 N NaOH and coloration of the cells was measured at 410 nm by an ELISA reader. The concentrations of 50% growth inhibition (IC50) were interpolated from dose-dependent growth inhibition curves. The data HeLa, Huh7, HCT116 and LoVo presented were the averages derived from a minimum of triplicate independent experiments.

Data set [2] has as its system Huh7 cells. In words: Cytotoxicity, acid phosphatase assay, Huh7. Particulars: 72 h; concentration of 50% growth inhibition. Type of data set: cell-based, Human. The procedure:
as §1

The subject of data set [3] is HCT116 cells. The experiment in a line: Cytotoxicity, acid phosphatase assay, HCT116. Particulars: 72 h; concentration of 50% growth inhibition. Type of data set: cell-based, Human. The method, then: as §1
Data set [4] concerns Lovo cells. The experiment in a line: Cytotoxicity, acid phosphatase assay, LoVo. Type of data set: cell-based, Human. Particulars: 72 h; concentration of 50% growth inhibition. The procedure:
as §1

The subject of data set [5] is four human cancer cell lines (HeLa, Huh7, HCT116, LoVo). In words: Cytotoxicity evaluation across four human cancer cell lines. Type of data set: cell-based. The procedure:
as §1

Data set [6] can be described thus: Antioxidative potency (AOP), iron/ascorbate system with linoleic acid as substrate. Type of data set: biochemical. Particulars: compared with BHT; FIG. 2; ca. 1, 4, 10 ppm; 37° C., 5 and 30 min. The method, then:
(4). Determination of Antioxidative Activity: The procedure using an iron/ascorbate system reported by Yoon,^9 Chiou,^10 Decker,^11 Tamura,^12 and Sasaki^13 was modified. In a beaker (50 ml), 100 mg of linoleic acid, 1.0 g of Tween 20, and 20 ml of Tris-buffer (pH 7.4, 50 mM) were combined, gently shaken and emulsified with a sonicator for 2 min. An iron/ascorbate solution containing 30 μM FeCl3 and 200 μM ascorbic acid in the Tris-buffer (pH 7.4, 50 mM) was prepared daily. In a series of 1.5-ml microfuge tubes, 0.5 ml of the emulsified linoleic acid, 0.5 ml of the iron/ascorbate solution, and 0.1 ml of methanol containing various concentrations of the three compounds or BHT including 0, 10, 40 and 100 ppm (μg/ml) (resulting in ca. 0, 1, 4 and 10 ppm of concentration after combination) were deposited. Prior to incubation, the tubes were immersed and kept in an ice bath to minimize any reactions. To initiate reaction, the mixtures in the tubes were mixed by hand (gently to prevent foaming) and placed into the wells of a thermal block at 37° C. for 5 and 30 min. After incubation, the produced conjugated diene hydroperoxide (CDHP) contents were determined spectrophotometrically. […] The absorbance (A) at 234 nm of the mixture was measured. […] The percentage of AOP (capacity to inhibit peroxide formation in linoleic acid) was calculated as follows. […]

Converted amounts (≈) assume the structure as drawn.

For the compound `CCC/C=C/C/C=C\CCCCCCCCCc1cc(O)ccc1O` [Compound 2, 10′(Z),13′(E)-heptadecadienylhydroquinone], in data set [1], the “IC50 Hela cells” value amounted to 4.6 µg/mL (≈ 13.4 µM). The “IC50 Huh7 cells” value in data set [2] was determined as 6.0 µg/mL (≈ 17.4 µM). The “IC50 HCT116 cells” value in data set [3] was determined as 3.5 µg/mL (≈ 10.2 µM). Further, the “IC50 Lovo cells” value in data set [4] was 5.6 µg/mL (≈ 16.3 µM). Moreover, the “cytotoxic activity against four human cancer cell lines” value in data set [5] is given as “significant cytotoxic activity”. Besides, the “antioxidative potency (AOP)” value in data set [6] was “close to that of BHT”.
With `C/C=C/C=C/C/C=C\CCCCCCCCCc1cc(O)ccc1O` [Compound 1, 10′(Z),13′(E),15′(E)-heptadecatrienylhydroquinone], in data set [1], the “IC50 Hela cells” value turned out to be 2.8 µg/mL (≈ 8.17 µM). Also, in data set [2], the “IC50 Huh7 cells” value was determined as 3.9 µg/mL (≈ 11.4 µM). The “IC50 HCT116 cells” value in data set [3] stood at 2.0 µg/mL (≈ 5.84 µM). Further, the “IC50 Lovo cells” value in data set [4] came out at 4.5 µg/mL (≈ 13.1 µM). Besides, in data set [5], the “cytotoxic activity against four human cancer cell lines” value is “significant cytotoxic activity”. In addition, the “antioxidative potency (AOP)” value in data set [6] is given as “close to that of BHT”.

For the origin of these results see patent publication US20040110847A1, “Compounds extracted from Sap of Rhus succedanea” (priority 2002, published 2004).
